Literature values, collected in patent US20040146462A1, “Contrast agents” (priority 1998, published 2004).

Tested on: coronary blood flow in healthy myocardial tissue
Conditions: administration of adenosine

Nc1ncnc2c1ncn2[C@@H]1O[C@H](CO)[C@@H](O)[C@H]1O [adenosine]
increase in coronary blood flow in healthy myocardial tissue: in excess of fourfold
